PubChem BioAssay (NCI)
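Step 1: Grow cells in 96-well plates. Step 2: Expose to compound for 48 hours at 5 concentrations. Step 3: Interpolate endpoints linearly; if unreached, use highest concentration. GI50 = concentration required for 50% inhibition of growth. TGI denotes the concentration required for complete inhibition of growth.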

Experiments:
Test in all cases: NCI-60 cell line screen, 48 h
[1] = tested on: 786-0 renal
[2] = tested on: A549 NSCLC
[3] = tested on: HOP-92 NSCLC
[4] = tested on: K-562 leukemia
[5] = tested on: NCI-H226 lung
[6] = tested on: NCI/ADR-RES ovarian
[7] = tested on: SF-268 CNS
[8] = tested on: SK-OV-3 ovarian
[9] = tested on: TK-10 renal
[10] = tested on: UACC-257 melanoma

| SMILES | GI50 [1] [µM] | TGI [1] [µM] | GI50 [2] [µM] | TGI [2] [µM] | GI50 [3] [µM] | TGI [3] [µM] | GI50 [4] [µM] | TGI [4] [µM] | GI50 [5] [µM] | TGI [5] [µM] | GI50 [6] [µM] | TGI [6] [µM] | GI50 [7] [µM] | TGI [7] [µM] | GI50 [8] [µM] | TGI [8] [µM] | GI50 [9] [µM] | TGI [9] [µM] | GI50 [10] [µM] | TGI [10] [µM] |
| --- | --- | --- | --- | --- | --- | --- | --- | --- | --- | --- | --- | --- | --- | --- | --- | --- | --- | --- | --- | --- |
| c1ccc(-c2cc3n4c(-c5ccccc5)nn(-c5ccccc5)c4cnc-3n2)cc1 | 19.8 | > 50 | > 50 | > 50 | 12 | > 50 | > 50 | > 50 | > 50 | > 50 | > 50 | > 50 | 10.1 | > 50 | 11.8 | > 50 | 19.3 | > 50 | > 50 | > 50 |
| N=C1C=C(N)C(=O)c2ccccc21 | 0.202 | 0.406 | 1.04 | 2.7 | 0.207 | 0.496 | 0.231 | 0.556 | 0.19 | 0.394 | 0.296 | 1.01 | 0.199 | 0.451 | 1.51 | 2.86 | 0.599 | 1.7 | 0.161 | 0.306 |
| CS(=O)(=O)CCNCc1ccoc1-c1ccc2ncnc(Nc3ccc(OCc4ccccc4)cc3)c2c1 | > 25 | > 25 | > 25 | > 25 | 1.98 | > 25 | 14.4 | > 25 | > 25 | > 25 | > 25 | > 25 | > 25 | > 25 | 1.5 | > 25 | 1.38 | > 25 | > 25 | > 25 |
| CCOC(=O)N(O)c1ccc(/C=C/c2ccccc2)cc1 | 10.9 | > 51.1 | 2.98 | 41.9 | 4.96 | 35.7 | 5.88 | > 100 | 0.128 | 0.446 | 13 | 88.6 | 18.2 | > 100 | 23.6 | > 100 | 2 | 6.75 | 0.421 | 2.49 |
| CC[C@@H](C(=O)[C@@H](C)[C@@H](O)[C@H](C)[C@@H]1O[C@@H]([C@@H](CC)C(=O)O)CC[C@@H]1C)[C@H]1O[C@]2(C=C[C@@H](O)[C@]3(CC[C@@](C)([C@H]4CC[C@](O)(CC)[C@H](C)O4)O3)O2)[C@H](C)C[C@@H]1C | 1.25 | 19.2 | 0.421 | 14.1 | 0.266 | 5.1 | 0.207 | 5.72 | 2.07 | 19.6 | 1.32 | 51.4 | 1.93 | 24.8 | 3.6 | 48 | 0.942 | 17.8 | 0.461 | 6.79 |
| CNc1nc(-c2ccc3c(N)n[nH]c3c2)cc(N2C[C@@H](C(=O)NC3CCCCC3)CC[C@H]2C)n1 | 3.28 | 14.6 | 3.37 | 20.8 | 0.189 | 3.99 | 3.78 | 39 | 6.74 | 22.7 | 13.3 | 41.3 | 2.98 | 19 | 0.495 | 9.97 | 0.366 | 9.46 | 1.3 | 16.8 |
